One assay deals with KRAS-G13D (Homo sapiens, UniProt P01116, G13D). Briefly: SOS-catalyzed nucleotide exchange assay (Procedure A, TR-FRET), KRAS-G13D. It counts as biochemical. The source says: (§1) Procedure for SOS-Catalyzed Nucleotide Exchange Assay for KRAS-WT, G12C/D/V, G13D, HRAS, and NRAS (Procedure A)
(§2) Recombinant KRAS-G12C protein used in this assay has an additional triple mutation (C51S/C80L/C118S). Whereas KRAS-WT, G12D/V, G13D, HRAS and NRAS are in context of their WT protein sequence background. Specifically, the SOS-catalyzed nucleotide exchange assay utilizes a preformed TR-FRET complex containing a specific biotinylated RAS protein (KRAS-WT, G12C/V/D, G13D, HRAS, NRAS; described above) with Bodipy-GDP, and Terbium-streptavidin. Compounds are preincubated with this complex for 60 minutes. Subsequently, recombinant human SOS protein and unlabeled GTP are added to initiate the exchange reaction. Small molecule inhibitors stabilize the Bodipy-GDP complex whereas the untreated protein rapidly exchanges Bodipy-GDP for unlabeled GTP resulting in reduced TR-FRET signal.
(§3) To assemble the preformed TR-FRET complexes, each biotinylated RAS protein is diluted to 2 μM in an EDTA Buffer (20 mM HEPES pH 7.5, 50 mM sodium chloride, 10 mM EDTA, and 0.01% Tween) and incubated at room temperature for one hour. This mixture is then further diluted to 90 nM in an Assay Buffer (20 mM HEPES pH 7.5, 150 mM sodium chloride, 10 mM magnesium chloride, and 0.005% Tween) containing 15 nM of Terbium-Streptavidin (Invitrogen, catalog #PV3577) and 900 nM of Bodipy-GDP (Invitrogen, catalog #G22360) and incubated at room temperature for six hours. It should be noted that this preformed TR-FRET complex for each of the RAS protein were made ahead of time, aliquoted and stored at −80° C. until the day of the experiment.
(§4) Each test compound (10 mM stock in DMSO) is diluted in DMSO to make a final-10-point, 3-fold dilution and is acoustically dispensed into a 384-well assay plate (Corning, catalog #3820) using an Echo 550 (Labcyte). Each well of the assay plate receives 3 μL of a specific 3×RAS preformed TR-FRET complex and 3 μL of Assay Buffer and is incubated at room temperature for 60 minutes (preincubation time). Each well then receives 3 μL of 3×recombinant human SOS protein and GTP (Sigma, G8877) in Assay Buffer and is incubated at room temperature for 30 minutes (G13D), 60 minutes (KRAS WT/G12C/D, H/NRAS) or 90 minutes for G12V. The final reaction in each well of 9 μL consists of 3 mM GTP, specific Ras and SOS proteins in the following concentrations: KRAS-G12C/SOS=3 nM/40 nM, KRAS-WT and G12D/SOS=1 nM/40 nM, KRAS-G12V/SOS=1.25 nM/160 nM. KRAS-G13D/SOS=1.25 nM/0 nM, HRAS and NRAS=1.25 nM/40 nM.
(§5) The time-resolved fluorescence resonance energy transfer (TR-FRET) signal is measured on an Envision (PerkinElmer) plate reader: Excitation filter=340 nm; emission 1=495 nm; emission2=520 nm; dichroic mirror=D400/D505; delay time=[…]. The signal of each well is determined as the ratio of the emission at 520 nm to that at 495 nm. Percent effect of each well is determined after normalization to control wells containing DMSO (no effect) or a saturating concentration of inhibitor (max effect). The apparent effect as a function of compound concentration is fit to a four-parameter logistic equation.

A further assay addresses KRAS-G12D (Homo sapiens, UniProt P01116, G12D). Briefly: SOS-catalyzed nucleotide exchange assay (Procedure A, TR-FRET), KRAS-G12D. It counts as biochemical. The procedure, abridged: (§6)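 Signal ratio (520/495 nm, excitation 340 nm) reports Bodipy-GDP retention on biotinylated RAS after SOS-catalyzed exchange with 3 mM GTP. SOS was 40 nM, except 160 nM for G12V. Room-temperature exchange lasted 60 min (90 min for G12V), following a 60 min compound preincubation.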

The target in assay [1] is KRAS-G12C (C51S/C80L/C118S) (Homo sapiens, UniProt P01116, C118S/C51S/C80L/G12C). Briefly: SOS-catalyzed nucleotide exchange assay (Procedure A, TR-FRET), KRAS-G12C. It is filed as biochemical.
KRAS-G12C (C51S/C80L/C118S), sequence (P01116 with tags, fused parts or gaps isoform P01116-2 G12C/C51S/C80L/C118S): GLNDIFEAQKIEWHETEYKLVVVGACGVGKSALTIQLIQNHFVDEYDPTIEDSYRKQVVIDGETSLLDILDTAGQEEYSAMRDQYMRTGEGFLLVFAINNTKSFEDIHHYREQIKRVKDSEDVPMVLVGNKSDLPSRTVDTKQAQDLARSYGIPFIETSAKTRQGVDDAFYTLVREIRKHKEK
Excerpt: as §1, §2, §3, §4, §5
In general terms: TR-FRET usually uses a lanthanide donor and a delayed reading to cut background.

The target in the next assay is KRAS-WT (Homo sapiens, UniProt P01116). Briefly: SOS-catalyzed nucleotide exchange assay (Procedure A, TR-FRET), KRAS-WT. It is filed as biochemical. The procedure, abridged: as §6
KRAS-WT, sequence (P01116 with tags, fused parts or gaps isoform P01116-2): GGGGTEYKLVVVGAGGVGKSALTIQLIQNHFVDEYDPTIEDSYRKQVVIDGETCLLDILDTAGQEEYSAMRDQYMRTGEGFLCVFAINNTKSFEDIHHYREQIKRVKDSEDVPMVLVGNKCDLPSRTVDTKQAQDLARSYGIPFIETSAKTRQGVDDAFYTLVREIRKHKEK
The target in the next assay is KRAS-G12V (Homo sapiens, UniProt P01116, G12V). Briefly: SOS-catalyzed nucleotide exchange assay (Procedure A, TR-FRET), KRAS-G12V. It counts as biochemical. In outline:
as §6

In a further assay the test system is AsPC-1 cells. Briefly: Cellular phospho-ERK assay, AsPC-1 cells (homozygous KRAS-G12D). It is filed as cell-based. The following applies: Homo sapiens, read-out: AsPC1 pERK IC50. The procedure, abridged: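 Inhibition of ERK phosphorylation was determined after treating attached cells with compound for 2 h; top concentration 30 μM, serial 1:3 dilution. Each well's p-ERK:total ERK ratio, read by SureFire Ultra, was fitted with a four-parameter model for IC50.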

Where [2] appears, read: nucleotide exchange, Procedure A, read-out: KRAS G13D GNE IC50.
Where [3] appears, read: nucleotide exchange, read-out: KRAS G12D GNE IC50.
Where [4] appears, read: nucleotide exchange, Procedure A, read-out: KRAS G12C GNE IC50.
[5] abbreviates: nucleotide exchange, read-out: KRAS WT GNE IC50.
Where [6] appears, read: nucleotide exchange, read-out: KRAS G12V GNE IC50.
Where [7] appears, read: ASPC1, 2 h, 2 hours compound incubation.

Read-outs that look alike come from different tables or passages of the source.

As usually defined, the IC50 is the midpoint of a concentration-inhibition curve.

KRAS-G12D, sequence (P01116 with tags, fused parts or gaps isoform P01116-2 G12D): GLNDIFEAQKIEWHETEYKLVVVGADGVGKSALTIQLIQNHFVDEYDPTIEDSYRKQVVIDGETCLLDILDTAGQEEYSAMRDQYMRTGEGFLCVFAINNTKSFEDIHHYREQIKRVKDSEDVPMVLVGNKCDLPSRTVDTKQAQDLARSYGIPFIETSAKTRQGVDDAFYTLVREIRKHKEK
KRAS-G13D, sequence (P01116 with tags, fused parts or gaps isoform P01116-2 G13D): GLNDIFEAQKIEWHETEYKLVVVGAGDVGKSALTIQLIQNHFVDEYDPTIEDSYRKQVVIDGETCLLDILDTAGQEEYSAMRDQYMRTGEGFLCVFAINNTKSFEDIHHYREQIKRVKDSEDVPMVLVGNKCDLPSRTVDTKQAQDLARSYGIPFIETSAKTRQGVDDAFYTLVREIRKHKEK
KRAS-G12V, sequence (P01116 with tags, fused parts or gaps isoform P01116-2 G12V): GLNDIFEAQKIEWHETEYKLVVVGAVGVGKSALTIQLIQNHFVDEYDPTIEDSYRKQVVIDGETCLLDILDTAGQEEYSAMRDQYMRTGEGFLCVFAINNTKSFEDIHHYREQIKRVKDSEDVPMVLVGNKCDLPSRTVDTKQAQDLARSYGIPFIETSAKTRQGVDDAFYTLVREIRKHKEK

Turning to `Cc1cc2[nH]ncc2c(-c2nccc3c2[se]c2nc(OC[C@@]45CCCN4C[C@H](F)C5)nc(N4CCOC[C@@](C)(O)C4)c23)c1C(F)(F)F` [Ex-288, (6S)-4-(2-(((2R,7aS)-2-fluorotetrahydro-1H-pyrrolizin-7a(5H)-yl)methoxy)-8-(6-methyl-5-(trifluoromethyl)-1H-indazol-4-yl)pyrido[4′,3′:4,5]selenopheno[2,3-d]pyrimidin-4-yl)-6-methyl-1,4-oxazepan-6-ol], the IC50 against KRAS-G13D amounted to 50.7 nM; against KRAS-G12D (KRAS G12D GNE IC50, nucleotide exchange), 34.6 nM; in assay [1] it was 22 nM; at KRAS-WT (KRAS WT GNE IC50, nucleotide exchange), 69.1 nM; on KRAS-G12V (KRAS G12V GNE IC50, nucleotide exchange), 25.9 nM; with AsPC-1 cells (ASPC1, KRAS-G12D, 2 hours) it was 374 nM.
Turning to `CC1(O)COCCN(c2nc(OCC34CCCN3CC(F)C4)nc3sc4c(-c5c(C6CC6)c(F)cc6[nH]ncc56)nccc4c23)C1` [Ex-47, (6S)-4-(8-(5-cyclopropyl-6-fluoro-1H-indazol-4-yl)-2-(((2R,7aS)-2-fluorotetrahydro-1H-pyrrolizin-7a(5H)-yl)methoxy)pyrido[4′,3′:4,5]thi-eno[2,3-d]pyrimidin-4-yl)-6-methyl-1,4-oxazepan-6-ol], the half-maximal inhibitory concentration (IC50) on KRAS-G13D (setting [2]) was found to be 32.6 nM; on KRAS-G12D (setting [3]), 32 nM; in assay [1] (setting [4]) it was 17.9 nM; on KRAS-WT (setting [5]), 101 nM; at KRAS-G12V (setting [6]), 55 nM; in the assay with AsPC-1 cells (ASPC1, 2 h, KRAS-G12D, 2 hours) it was 385 nM.
As to `C[C@@]1(O)COCCN(c2nc(OC[C@@]34CCCN3C[C@H](F)C4)nc3sc4c(-c5c(-c6cccs6)c(Cl)cc6[nH]ncc56)nccc4c23)C1` [Ex-143, (6S)-4-(8-(6-chloro-5-(thiophen-2-yl)-1H-indazol-4-yl)-2-(((2R,7aS)-2-fluoro-tetrahydro-1H-pyr-rolizin-7a(5H)-yl)-methoxy)pyrido [4′,3′:4,5]thieno[2,3-d]pyrimidin-4-yl)-6-methyl-1,4-oxaze-pan-6-ol], the IC50 is 124 nM at KRAS-G13D (setting [2]); 108 nM on KRAS-G12D (setting [3]); 52.9 nM in assay [1] (setting [4]); 197 nM at KRAS-WT (setting [5]); 109 nM at KRAS-G12V (setting [6]); 330 nM in the assay on AsPC-1 cells (setting [7]).
Turning to `Cc1cc2[nH]ncc2c(-c2nccc3c2sc2nc(OC[C@@]45CCCN4C[C@H](F)C5)nc(NC45CC(O)(C4)C5)c23)c1C(F)(F)F` [Ex-187, 3-((2-(((2R,7aS)-2-fluoro-tetrahydro-1H-pyrrolizin-7a(5H)-yl)methoxy)-8-(6-methyl-5-(trifluorometh-yl)-1H-indazol-4-yl)pyrido [4′,3′:4,5]thieno[2,3-d]pyrimidin-4-yl)amino)-bicyclo[1.1.1]pentan-1-ol], the IC50 at KRAS-G13D (setting [2]) stood at 223 nM; on KRAS-G12D (setting [3]), 390 nM; in assay [1] (setting [4]), 72.6 nM; on KRAS-WT (setting [5]), 499 nM; on KRAS-G12V (setting [6]), 170 nM; in the assay with AsPC-1 cells (setting [7]), 3570 nM.
In the case of `CN(C)C[C@@]1(COc2nc(N3CCOC[C@@](C)(O)C3)c3c(n2)oc2c(-c4c(C5CC5)c(Cl)cc5[nH]ncc45)nccc23)CC1(F)F` [Ex-294, (6S)-4-(8-(6-chloro-5-cyclopropyl-1H-indazol-4-yl)-2-(((R)-1-((dimethylamino)methyl)-2,2-difluorocyclopropyl)meth-oxy)pyrido[4′,3′:4,5]furo[2,3-d]pyrimidin-4-yl)-6-methyl-1,4-oxazepan-6-ol], the IC50 at KRAS-G13D (setting [2]) was determined as 106 nM; on KRAS-G12D (setting [3]), 113 nM; in assay [1] (setting [4]), 30.1 nM; on KRAS-WT (setting [5]), 262 nM; on KRAS-G12V (setting [6]), 125 nM; with AsPC-1 cells (ASPC1, 2 h, KRAS-G12D, 2 hours), 295 nM.
As to `C#Cc1cccc2[nH]nc(-c3nccc4c3sc3nc(OC[C@@]56CCCN5C[C@H](F)C6)nc(N5CCOC[C@@](C)(O)C5)c34)c12` [Ex-159, (S)-4-(8-(4-ethynyl-1H-indazol-3-yl)-2-(((2R,7aS)-2-fluorotetrahydro-1H-pyrrolizin-7a(5H)-yl)methoxy)pyrido[4′,3′:4,5]thieno[2,3-d]pyrimidin-4-yl)-6-methyl-1,4-oxazepan-6-ol], the IC50 on KRAS-G13D (setting [2]) amounted to 328 nM; at KRAS-G12D (setting [3]) it was 260 nM; in assay [1] (setting [4]), 48.3 nM; on KRAS-WT (setting [5]) it was 658 nM; at KRAS-G12V (setting [6]), 118 nM; with AsPC-1 cells (setting [7]) it was 1170 nM.
Take `C/C=C(\C)c1c(C)cc2[nH]ncc2c1-c1nccc2c1sc1nc(OC[C@@]34CCCN3C[C@H](F)C4)nc(N3CCOC[C@@](C)(O)C3)c12` [Ex-65, (6S)-4-(8-(5-((E)-but-2-en-2-yl)-6-methyl-1H-indazol-4-yl)-2-(((2R,7aS)-2-fluorotetrahydro-1H-pyrrolizin-7a(5H)-yl)methoxy)pyrido[4′,3′:4,5]thi-eno[2,3-d]pyrimidin-4-yl)-6-methyl-1,4-oxazepan-6-ol]: the IC50 at KRAS-G13D (setting [2]) is 172 nM; at KRAS-G12D (setting [3]), 69.3 nM; in assay [1] (setting [4]), 362 nM; at KRAS-WT (setting [5]), 184 nM; on KRAS-G12V (setting [6]) it was 65.3 nM; in the assay on AsPC-1 cells (ASPC1, 2 h, KRAS-G12D, 2 hours), 560 nM.
In the case of `Cc1cc2[nH]ncc2c(-c2nccc3c2sc2nc(OC[C@@]45CCCN4C[C@H](F)C5)nc(N4CCOC[C@@](C)(O)C4)c23)c1C1=CCCC1` [Ex-140, (6S)-4-(8-(5-(cyclo-pent-1-en-1-yl)-6-methyl-1H-indazol-4-yl)-2-(((2R,7aS)-2-fluorotetrahydro-1H-pyrrolizin-7a(5H)-yl)methoxy)pyrido [4′,3′:4,5]thieno[2,3-d]pyrimidin-4-yl)-6-methyl-1,4-oxaze-pan-6-ol], the IC50 at KRAS-G13D (setting [2]) is 172 nM; at KRAS-G12D (setting [3]), 69.3 nM; in assay [1] (setting [4]) it was 362 nM; at KRAS-WT (setting [5]), 184 nM; at KRAS-G12V (setting [6]), 65.3 nM; in the assay on AsPC-1 cells (setting [7]) it was 560 nM.

Source of the values: patent publication US20260176289A1, “SMALL MOLECULE INHIBITORS OF KRAS PROTEINS” (Merck Sharp & Dohme LLC, priority 2022, published 2026).
